pIC50: −log10 of the molar value.
Test system: NCI-H1618 multicellular tumor spheroid viability
Assay: Anticancer human tumor NCI-H1618 cell line growth inhibition;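 note: spheroids exposed to agents for 7 days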
Details: for pIC50: curve of first compound; for viability, T/C: stronger effect = lower value
How it was run: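 Complex tumor spheroids combined malignant cells with endothelial cells and mesenchymal stem cells. DNA-damaging drugs and DNA repair inhibitors were tested alone and in combination, at half-log dilutions down from clinical Cmax (top 10 microM if Cmax unknown), 0.25% DMSO final.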

[1] = second compound 0.003 µM, first compound 0.0316 µM
[2] = second compound 0.003 µM, first compound 0.1 µM
[3] = second compound 0.003 µM, first compound 0.316 µM
[4] = second compound 0.003 µM, first compound 1 µM
[5] = second compound 0.003 µM, first compound 3.16 µM
[6] = second compound 0.003 µM, first compound 10 µM

`[2H]c1nc(C)nc([2H])c1-c1cc(NC[C@@H](C)c2cccc3c(C(=O)NC)ccnc23)ncn1` + COc1cc2c(cc1O)CCNC21CSC2c3c(OC(C)=O)c(C)c4c(c3C(COC1=O)N1C(O)C3Cc5cc(C)c(OC)c(O)c5C(C21)N3C)OCO4 gave a pIC50 (second compound 30 pM) of under 5.00, a pIC50 (second compound 94.9 pM) of 6.60 and a pIC50 (second compound 0.0003 µM) of over 7.50. It also gave a pIC50 (second compound 0.000949 µM) of over 7.50, a pIC50 (second compound 0.003 µM) of over 7.50 and a viability, T/C (second compound 30 pM, first compound 0.0316 µM) of 101%. It also gave a viability, T/C (second compound 30 pM, first compound 0.1 µM) of 93.8%, a viability, T/C (second compound 30 pM, first compound 0.316 µM) of 87.8% and a viability, T/C (second compound 30 pM, first compound 1 µM) of 103%. It also gave a viability, T/C (second compound 30 pM, first compound 3.16 µM) of 93.9%, a viability, T/C (second compound 30 pM, first compound 10 µM) of 83.3% and a viability, T/C (second compound 94.9 pM, first compound 0.0316 µM) of 90.6%. For the same compound, the viability, T/C (second compound 94.9 pM, first compound 0.1 µM) was 61.4%, the viability, T/C (second compound 94.9 pM, first compound 0.316 µM) was 24.4% and the viability, T/C (second compound 94.9 pM, first compound 1 µM) was 55.4%. For the same compound, the viability, T/C (second compound 94.9 pM, first compound 3.16 µM) was 52.7%, the viability, T/C (second compound 94.9 pM, first compound 10 µM) was 55.7% and the viability, T/C (second compound 0.0003 µM, first compound 0.0316 µM) was 5.13%. It also gave a viability, T/C (second compound 0.0003 µM, first compound 0.1 µM) of 2.89%, a viability, T/C (second compound 0.0003 µM, first compound 0.316 µM) of 3.41% and a viability, T/C (second compound 0.0003 µM, first compound 1 µM) of 5.38%. For the same compound, the viability, T/C (second compound 0.0003 µM, first compound 3.16 µM) was 18.8%, the viability, T/C (second compound 0.0003 µM, first compound 10 µM) was 3.93% and the viability, T/C (second compound 0.000949 µM, first compound 0.0316 µM) was 3.46%. For the same compound, the viability, T/C (second compound 0.000949 µM, first compound 0.1 µM) was 3.49%, the viability, T/C (second compound 0.000949 µM, first compound 0.316 µM) was 3.75% and the viability, T/C (second compound 0.000949 µM, first compound 1 µM) was 4.59%. The viability, T/C (second compound 0.000949 µM, first compound 3.16 µM) was 4.63%, the viability, T/C (second compound 0.000949 µM, first compound 10 µM) was 4.69% and the viability, T/C [1] was 2.53%. For the same compound, the viability, T/C [2] was 3.55%, the viability, T/C [3] was 4.4% and the viability, T/C [4] was 3.2%. The viability, T/C [5] was 1.87% and the viability, T/C [6] was 5.37%.
`COc1cc(C)[nH]c(=O)c1CN1CCc2c(Cl)cc(C(OC)C3COC3)c(Cl)c2C1=O` (stereo not given) + CC[C@@]1(O)C(=O)OCc2c1cc1n(c2=O)Cc2cc3c(CN(C)C)c(O)ccc3nc2-1 showed a pIC50 (second compound 0.003 µM) of under 5.00, a pIC50 (second compound 0.00949 µM) of over 7.50 and a pIC50 (second compound 0.03 µM) of over 7.50. It also gave a pIC50 (second compound 0.0949 µM) of over 7.50, a pIC50 (second compound 0.3 µM) of over 7.50 and a viability, T/C [1] of 54.1%. The viability, T/C [2] was 52.3%, the viability, T/C [3] was 78.8% and the viability, T/C [4] was 63.3%. For the same compound, the viability, T/C [5] was 83.5%, the viability, T/C [6] was 53.2% and the viability, T/C (second compound 0.00949 µM, first compound 0.0316 µM) was 39.5%. The viability, T/C (second compound 0.00949 µM, first compound 0.1 µM) was 10.9%, the viability, T/C (second compound 0.00949 µM, first compound 0.316 µM) was 17.2% and the viability, T/C (second compound 0.00949 µM, first compound 1 µM) was 40.1%. For the same compound, the viability, T/C (second compound 0.00949 µM, first compound 3.16 µM) was 38.8%, the viability, T/C (second compound 0.00949 µM, first compound 10 µM) was 29.1% and the viability, T/C (second compound 0.03 µM, first compound 0.0316 µM) was 6.67%. It also gave a viability, T/C (second compound 0.03 µM, first compound 0.1 µM) of 5.82%, a viability, T/C (second compound 0.03 µM, first compound 0.316 µM) of 8.79% and a viability, T/C (second compound 0.03 µM, first compound 1 µM) of 4.86%. For the same compound, the viability, T/C (second compound 0.03 µM, first compound 3.16 µM) was 5.97%, the viability, T/C (second compound 0.03 µM, first compound 10 µM) was 7.23% and the viability, T/C (second compound 0.0949 µM, first compound 0.0316 µM) was 6.1%. For the same compound, the viability, T/C (second compound 0.0949 µM, first compound 0.1 µM) was 2.42%, the viability, T/C (second compound 0.0949 µM, first compound 0.316 µM) was 2.48% and the viability, T/C (second compound 0.0949 µM, first compound 1 µM) was 6.01%. It also gave a viability, T/C (second compound 0.0949 µM, first compound 3.16 µM) of 4.18%, a viability, T/C (second compound 0.0949 µM, first compound 10 µM) of 6.78% and a viability, T/C (second compound 0.3 µM, first compound 0.0316 µM) of 2.05%. It also gave a viability, T/C (second compound 0.3 µM, first compound 0.1 µM) of 2.31%, a viability, T/C (second compound 0.3 µM, first compound 0.316 µM) of 2% and a viability, T/C (second compound 0.3 µM, first compound 1 µM) of 1.4%. The viability, T/C (second compound 0.3 µM, first compound 3.16 µM) was 3.18% and the viability, T/C (second compound 0.3 µM, first compound 10 µM) was 2.92%.

Reference: PubChem BioAssay AID1845206 (Molecular Pharmacology Branch, DTP, NCI, 2023)
